Source: article PMC8624189, “Phenolic Profiles and Biological Activities of Extracts from Edible Wild Fruits Ehretia tinifolia and Sideroxylon lanuginosum” (Foods, 2021)
Values after ≈ are worked out from the molar mass of the structure shown. Values belong to the molecule of their own block, whether it stands above or below them.

Columns and labels:
MCF-7 cells = settings: read-out: EC50 in inhibiting MCF-7 cell growth; cited from earlier work
erythrocytes = settings: cited from earlier work
human erythrocytes = test: Protective effect on human erythrocytes (AAPH-induced hemolysis); format: cell-based; settings: Erythrocyte, 37 °C, 3 h, read-out: Hemolytic Inhibition IC50
Method: Hemolysis was induced by peroxyl radicals generated by AAPH (2-2'-Azobis (2-amidinopropane dihydrochloride) according to the methodology of Silva-Beltrán et al.. Then, 5 mL of blood was obtained from healthy human volunteers by venipuncture and collected into tubes containing EDTA as an anticoagulant. Erythrocytes were separated from plasma by centrifugation at 1500 rpm for 10 min at room temperature and washed three times with five volumes of phosphate-buffered saline (PBS) (37 mM of NaCl, 2.7 mM of KCI, 8 mM of Na2HPO4, and 2 mM of KH2PO4 w/v) at pH 7.4. Later, erythrocytes were suspended in four volumes of PBS solution to obtain a density of 8 × 10^9 cells/mL. The addition of AAPH to the suspension of washed erythrocytes induces oxidation of membrane lipids and proteins, resulting in hemolysis. The erythrocyte suspension (250 μL) was mixed with 250 μL of fruit extracts dissolved in PBS at concentrations of 500, 750, 1000, 2000 μg/mL and 250 μL of 300 mM AAPH in PBS. The reaction mixture was shaken gently while being incubated at 37 °C for 3 h. […] The supernatant's absorbance was measured in a microplate reader (Agilent BioTek Epoch, Santa Clara, CA, United States) at 540 nm. Percent inhibition was calculated by the following equation:% Inhibition = [[…] × 100] where AAAPH is the absorbance of AAPH at 540 nm and As is the absorbance of the extracts at 540 nm. […]

HeLa cells = test: Antiproliferative activity, Alamar Blue, HeLa; format: cell-based; settings: Homo sapiens, 24 h exposure, read-out: Half Maximal Inhibitory Concentration HeLa
Method: (§1) The antiproliferative effects of extracts of E. tinifolia and S. lanuginosum were assessed using the method described previously by Viveros-Valdez, et al.. HeLa (ATCC® CCL-2), MCF-7 (ATCC® HTB-22) and HT-29 (ATCC® HTB-38) cancer cell lines were used. The cells were seeded in 25 cm^2 tissue culture flasks in Dulbecco’s modified eagle medium (DMEM) mixed with Ham’s nutrients (Ham’s F-12) and supplemented with 10% fetal bovine serum (FBS), adjusting the pH to 7.2. A mixture of antibiotics composed of penicillin and streptomycin (10,000 IU/mL: 10,000 µg/mL; 1 mL of mixture/1 L of medium) was added. Cells were maintained at 37 °C in an incubator under a 5% CO2/95% air atmosphere at constant humidity. Cells were harvested by trypsinization, counted with a hemocytometer, and their viability was confirmed by Trypan Blue (0.4%). The different cancer cell lines were seeded with 5000 cells per well in a 96 well plate.

HT-29 cells = test: Antiproliferative activity, Alamar Blue, HT-29; format: cell-based; settings: Homo sapiens, 24 h exposure, read-out: Half Maximal Inhibitory Concentration HT-29
Method: as §1

SMILES: O=c1c(O[C@@H]2O[C@H](CO)[C@@H](O)[C@H](O)[C@H]2O)c(-c2ccc(O)c(O)c2)oc2cc(O)cc(O)c12 [QG, quercetin glucoside]
EC50 (MCF-7 cells): 46.4 µM

SMILES: Oc1cc(O)c2c(c1)O[C@H](c1ccc(O)c(O)c1)[C@H](O)C2 [epicatechin]
hemolysis inhibition IC50 (erythrocytes): 42.3 µg/mL

SMILES: O=C1O[C@H]([C@@H](O)CO)C(O)=C1O [ascorbic acid]
IC50 (human erythrocytes): 289 ± 20 µg/mL (≈ 1640 µM)

IC50 (HeLa cells): 11 ± 2 µg/mL (≈ 12.9 µM)
IC50 (HT-29 cells): 15 ± 1 µg/mL (≈ 17.6 µM)
SMILES: CC(=O)O[C@H]1C(=O)[C@@]2(C)[C@H]([C@H](OC(=O)c3ccccc3)[C@]3(O)C[C@H](OC(=O)[C@H](O)[C@@H](NC(=O)c4ccccc4)c4ccccc4)C(C)=C1C3(C)C)[C@]1(OC(C)=O)CO[C@@H]1C[C@@H]2O [taxol, Taxol]
